US20130065922A1, “NOVEL AMIDES AS FUNGICIDES” (priority 2010, published 2013)
Where two headings read alike, the source gives them in different places.

Legend:
[1] = system: Pythium ultimum; assay: Pythium ultimum/Liquid Culture (Seedling Damping Off); type: cell-based; details: Globisporangium ultimum; 200 ppm; liquid culture (PDB), 24° C., growth inhibition photometrically 2-3 days after application; read-out: inhibit fungal infestation
[2] = system: Blumeria graminis f. Sp. tritici (Erysiphe graminis f. Sp. tritici); assay: Blumeria graminis f. Sp. tritici (Erysiphe graminis f. Sp. tritici)/Wheat/Leaf Disc Preventative (Powdery Mildew on Wheat); type: in vivo; details: foliar, read-out: inhibit fungal infestation
[3] = 200 ppm, wheat leaf segments cv. Kanzler, preventative, 6-8 days after application, untreated control infected to over 80%

Row | SMILES | melting point [°C] | further results
1 | COC(Oc1cc(C)c2ncc(SC)cc2c1)C(=O)NC1CCC1 (stereo not shown) | 132 to 134 | 
2 | CCC(Oc1ccc2ncc(SC)cc2c1)C(=O)NC(C)C (stereo not shown) [Compound 28, N-Isopropyl-2-(3-methylsulfanyl-quinolin-6-yloxy)-butyramide] | 112 to 115 | inhibition at 200 ppm [1]: ≥ 80%
3 | C#CC(C)(C)NC(=O)C(OC)Oc1ccc2ncc(SC)cc2c1 (stereo not shown) | 123 to 125 | 
4 | CCC(Oc1cc(C)c2ncc(SC)cc2c1)C(=O)NC(C)(C)C (stereo not shown) | 119 to 121 | 
5 | COC(Oc1cc(Cl)c2ncc(SC)cc2c1)C(=O)NC(C)C (stereo not shown) [Compound 52] | 115 to 118 | inhibition at 200 ppm [2, 3]: ≥ 80%
6 | COC(Oc1ccc2ncc(SC)cc2c1)C(=O)NC(C)(C)C (stereo not shown) [Compound 60, N-tert-Butyl-2-methoxy-2-(3-methylsulfanyl-quinolin-6-yloxy)-acetamide] | 119 to 121 | inhibition at 200 ppm [2, 3]: ≥ 80%
7 | CCC(Oc1ccc2ncc(OC)cc2c1)C(=O)NC(C)(C#N)COC (stereo not shown) | 122 to 124 | 
8 | CCOc1cnc2c(C)cc(OC(SC)C(=O)NC(C)(C)C)cc2c1 (stereo not shown) [Compound 20, N-tert-Butyl-2-(3-ethoxy-8-methyl-quinolin-6-yloxy)-2-methylsulfanyl-acetamide] | 181 to 183 | inhibition at 200 ppm [1]: ≥ 80%
9 | CCC(Oc1cc(C)c2ncc(SC)cc2c1)C(=O)NC(C)C (stereo not shown) | 132 to 134 | 
10 | COC(Oc1ccc2ncc(SC)cc2c1)C(=O)NC1(C)CCC1 (stereo not shown) | 100 to 102 | 
11 | CC#CC(C)(C)NC(=O)C(OC)Oc1ccc2ncc(SC)cc2c1 (stereo not shown) [Compound 57, N-(1,1-Dimethyl-but-2-ynyl)-2-methoxy-2-(3-methylsulfanyl-quinolin-6-yloxy)-acetamide] | 63 to 65 | inhibition at 200 ppm [2]: ≥ 80%
12 | C#CC(C)(C)NC(=O)C(OC)Oc1ccc2ncc(OC)cc2c1 (stereo not shown) [Compound 9, N-(1,1-Dimethyl-prop-2-ynyl)-2-methoxy-2-(3-methoxy-quinolin-6-yloxy)-acetamide] | 124 to 127 | inhibition at 200 ppm [2, 3]: ≥ 80%
13 | CCC(Oc1cc(C)c2ncc(SC)cc2c1)C(=O)NC1CCC1 (stereo not shown) | 136 to 138 | 
14 | CCOCC(C)(C)NC(=O)C(Oc1ccc2ncc(SC)cc2c1)SC (stereo not shown) [Compound 66, N-(2-Ethoxy-1,1-dimethyl-ethyl)-2-methylsulfanyl-2-(3-methylsulfanyl-quinolin-6-yloxy)-acetamide] |  | inhibition at 200 ppm [2, 3]: ≥ 80%
15 | COCC#CC(C)(C)NC(=O)C(OC)Oc1ccc2ncc(SC)cc2c1 (stereo not shown) [Compound 58, 2-Methoxy-N-(4-methoxy-1,1-dimethyl-but-2-ynyl)-2-(3-methylsulfanyl-quinolin-6-yloxy)-acetamide] | 74 to 76 | inhibition at 200 ppm [2]: ≥ 80%
16 | COC(Oc1ccc2ncc(SC)cc2c1)C(=O)NC1CCC1 (stereo not shown) [Compound 61, N-Cyclobutyl-2-methoxy-2-(3-methylsulfanyl-quinolin-6-yloxy)-acetamide] | 80 to 82 | inhibition at 200 ppm [2, 3]: ≥ 80%

Second part, led by results:

Row | melting point [°C] | SMILES | further results
17 | 124 to 127 | C#CC(C)(C)NC(=O)C(OC)Oc1cc(C)c2ncc(SC)cc2c1 (stereo not shown) | 
18 | 90 to 93 | COCC(C)(C#N)NC(=O)C(OC)Oc1cc(Cl)c2ncc(SC)cc2c1 (stereo not shown) | 
19 | 128 to 130 | COC(Oc1cc(Cl)c2ncc(SC)cc2c1)C(=O)NC1CCC1 (stereo not shown) | 
20 | 113 to 115 | COC(Oc1cc(Cl)c2ncc(SC)cc2c1)C(=O)NC1(C)CCC1 (stereo not shown) | 
21 | 143 to 145 | CCC(Oc1cc(Cl)c2ncc(SC)cc2c1)C(=O)NC(C)C (stereo not shown) | 
22 | 116 to 118 | C#CC(C)(C)NC(=O)C(OC)Oc1cc(Cl)c2ncc(SC)cc2c1 (stereo not shown) | 
23 | 134 to 136 | CCC(Oc1cc(Cl)c2ncc(SC)cc2c1)C(=O)NC(C)(C)C (stereo not shown) | 
24 | 146 to 148 | COC(Oc1cc(C)c2ncc(SC)cc2c1)C(=O)NC(C)(C)C (stereo not shown) | 
25 | 125 to 127 | COC(Oc1cc(Cl)c2ncc(SC)cc2c1)C(=O)NC(C)(C)C (stereo not shown) | 
26 | 140 to 142 | C#CC(C)(C)NC(=O)C(CC)Oc1cc(Cl)c2ncc(SC)cc2c1 (stereo not shown) | 
